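These data come from cells grown in 96-well plates and exposed to compound for 48 hours at five concentrations. GI50 marks 50% less growth. TGI: concentration producing complete growth inhibition.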
What was measured:
Experiment in all cases: DTP human tumour cell line panel, 48 h
NCI-H23 lung = test system: NCI-H23 lung
A498 renal = test system: A498 renal
CAKI-1 renal = test system: CAKI-1 renal
SF-539 CNS = test system: SF-539 CNS
SN12C renal = test system: SN12C renal
OVCAR-8 ovarian = test system: OVCAR-8 ovarian
LOX IMVI melanoma = test system: LOX IMVI melanoma
SNB-75 CNS = test system: SNB-75 CNS
DU-145 prostate = test system: DU-145 prostate
SK-MEL-28 melanoma = test system: SK-MEL-28 melanoma
IGROV1 ovarian = test system: IGROV1 ovarian
PC-3 prostate = test system: PC-3 prostate
RXF 393 renal = test system: RXF 393 renal
MCF7 breast = test system: MCF7 breast
COLO 205 colon = test system: COLO 205 colon
TK-10 renal = test system: TK-10 renal
SF-295 CNS = test system: SF-295 CNS
SK-MEL-2 melanoma = test system: SK-MEL-2 melanoma
MOLT-4 leukemia = test system: MOLT-4 leukemia
NCI-H522 lung = test system: NCI-H522 lung
UACC-62 melanoma = test system: UACC-62 melanoma
UACC-257 melanoma = test system: UACC-257 melanoma
OVCAR-3 ovarian = test system: OVCAR-3 ovarian
K-562 leukemia = test system: K-562 leukemia
RPMI-8226 leukemia = test system: RPMI-8226 leukemia
MDA-MB-468 breast = test system: MDA-MB-468 breast
U251 CNS = test system: U251 CNS
SR leukemia = test system: SR leukemia
786-0 renal = test system: 786-0 renal

O=C(Nc1ccc(I)cc1F)c1cc(-c2ccc(F)cc2F)ccc1O
GI50 (NCI-H23 lung): 2.14 µM
TGI (NCI-H23 lung): 6.04 µM
GI50 (A498 renal): 2.54 µM
TGI (A498 renal): 7.14 µM
GI50 (CAKI-1 renal): 1.71 µM
TGI (CAKI-1 renal): 4.83 µM
GI50 (SF-539 CNS): 3.2 µM
TGI (SF-539 CNS): 11.6 µM
GI50 (SN12C renal): 2.34 µM
TGI (SN12C renal): 6.88 µM
GI50 (OVCAR-8 ovarian): 3.17 µM
TGI (OVCAR-8 ovarian): 32.9 µM
GI50 (LOX IMVI melanoma): 3.21 µM
TGI (LOX IMVI melanoma): 10.9 µM
GI50 (SNB-75 CNS): 1.49 µM
TGI (SNB-75 CNS): 3.92 µM
GI50 (DU-145 prostate): 3.68 µM
TGI (DU-145 prostate): > 100 µM
GI50 (SK-MEL-28 melanoma): 3.76 µM
TGI (SK-MEL-28 melanoma): > 100 µM
GI50 (IGROV1 ovarian): 4.65 µM
TGI (IGROV1 ovarian): > 100 µM
GI50 (PC-3 prostate): 3.09 µM
TGI (PC-3 prostate): > 100 µM
GI50 (RXF 393 renal): 1.88 µM
TGI (RXF 393 renal): 5.45 µM
GI50 (MCF7 breast): 2.7 µM
TGI (MCF7 breast): 11 µM
GI50 (COLO 205 colon): 1.91 µM
TGI (COLO 205 colon): 4.13 µM
GI50 (TK-10 renal): 3.96 µM
TGI (TK-10 renal): 11.1 µM
GI50 (SF-295 CNS): 2.12 µM
TGI (SF-295 CNS): 4.91 µM
GI50 (SK-MEL-2 melanoma): 1.79 µM
TGI (SK-MEL-2 melanoma): 4.16 µM
GI50 (MOLT-4 leukemia): 2.58 µM
TGI (MOLT-4 leukemia): 9.32 µM
GI50 (NCI-H522 lung): 2.71 µM
TGI (NCI-H522 lung): 8.62 µM
GI50 (UACC-62 melanoma): 2.32 µM
TGI (UACC-62 melanoma): 6.89 µM
GI50 (UACC-257 melanoma): 2.41 µM
TGI (UACC-257 melanoma): 7.15 µM
GI50 (OVCAR-3 ovarian): 3.04 µM
TGI (OVCAR-3 ovarian): 9.16 µM
GI50 (K-562 leukemia): 2.77 µM
TGI (K-562 leukemia): 11 µM
GI50 (RPMI-8226 leukemia): 2.1 µM
TGI (RPMI-8226 leukemia): 5.67 µM
GI50 (MDA-MB-468 breast): 2.2 µM
TGI (MDA-MB-468 breast): 5.76 µM
GI50 (U251 CNS): 2.31 µM
TGI (U251 CNS): 5.94 µM
GI50 (SR leukemia): 2.49 µM
TGI (SR leukemia): 8.71 µM
GI50 (786-0 renal): 3.06 µM

— PubChem BioAssay (NCI)
